Assay [1] addresses T1, Telomerase reverse transcriptase (Homo sapiens, UniProt O14746). In words: Decrease in telomerase processivity assessed as decrease in telomerase elongation in presence of Telo3R primer by primer extension assay.
In assay [2] the target is T1, Telomerase reverse transcriptase. Description: Inhibition of human telomerase expressed in HEK293T cells treated before telomerase elongation by telomeric repeat amplification protocol assay. The assay is classed as cell-based. The settings on record: hek-293t.
For assay [3] the target is unchanged. Description: Inhibition of human telomerase expressed in HEK293T cells in presence of primer (T2AG3)3 by primer extension assay. In kind it is cell-based. The settings on record: hek-293t.
Assay [4] shares this target. Description: Inhibition of human telomerase expressed in HEK293T cells in presence of primer TS by primer extension assay. Conditions: hek-293t. The assay is classed as cell-based.
Assay [5] shares this target. Description: Inhibition of human telomerase expressed in HEK293T cells in presence of primer (T2AG3)4 by primer extension assay. In kind it is cell-based. Conditions: hek-293t.

From ChEMBL document CHEMBL1147074, “Reevaluation of telomerase inhibition by quadruplex ligands and their mechanisms of action” (Proc Natl Acad Sci U S A, 2007) come the findings set out here.

Calls of active or inactive are those of the source. The calls are words filed in the database; no cut-off is given here.

T1 sequence (O14746 whole entry): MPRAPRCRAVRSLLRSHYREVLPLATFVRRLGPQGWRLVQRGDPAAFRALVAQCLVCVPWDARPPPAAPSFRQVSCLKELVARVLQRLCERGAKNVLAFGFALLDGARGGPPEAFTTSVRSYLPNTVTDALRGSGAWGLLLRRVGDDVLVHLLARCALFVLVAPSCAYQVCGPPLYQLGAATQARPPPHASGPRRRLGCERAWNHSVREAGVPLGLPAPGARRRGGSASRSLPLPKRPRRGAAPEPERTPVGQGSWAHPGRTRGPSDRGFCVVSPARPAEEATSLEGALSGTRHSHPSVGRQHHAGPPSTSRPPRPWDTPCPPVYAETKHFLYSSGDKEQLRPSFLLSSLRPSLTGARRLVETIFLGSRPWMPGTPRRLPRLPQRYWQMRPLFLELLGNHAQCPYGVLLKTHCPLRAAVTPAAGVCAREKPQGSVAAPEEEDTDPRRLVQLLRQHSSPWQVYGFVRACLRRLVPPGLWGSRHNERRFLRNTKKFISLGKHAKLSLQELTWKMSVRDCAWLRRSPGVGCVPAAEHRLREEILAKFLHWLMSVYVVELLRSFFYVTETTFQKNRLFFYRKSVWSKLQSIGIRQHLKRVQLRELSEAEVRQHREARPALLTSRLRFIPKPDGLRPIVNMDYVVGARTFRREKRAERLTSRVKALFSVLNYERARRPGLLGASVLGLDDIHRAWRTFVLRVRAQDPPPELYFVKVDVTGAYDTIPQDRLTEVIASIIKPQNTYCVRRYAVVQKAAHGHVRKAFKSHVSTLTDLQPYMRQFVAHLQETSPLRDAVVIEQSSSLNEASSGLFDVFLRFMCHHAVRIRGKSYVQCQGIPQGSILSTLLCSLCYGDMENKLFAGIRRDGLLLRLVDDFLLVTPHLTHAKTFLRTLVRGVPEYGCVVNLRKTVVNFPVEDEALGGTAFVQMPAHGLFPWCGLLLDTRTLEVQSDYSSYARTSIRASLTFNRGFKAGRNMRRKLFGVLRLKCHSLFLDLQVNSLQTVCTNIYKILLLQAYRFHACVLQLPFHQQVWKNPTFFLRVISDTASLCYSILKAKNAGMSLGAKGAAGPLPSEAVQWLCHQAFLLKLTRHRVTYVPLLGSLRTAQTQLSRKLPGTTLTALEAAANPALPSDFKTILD

The IC50 is the concentration that gives 50% inhibition. In the case of `CN(C)c1ccc(Nc2c3ccc(NC(=O)CCN4CCCC4)cc3nc3cc(NC(=O)CCN4CCCC4)ccc23)cc1`, the outcome in assay [1] was inactive. Besides, the IC50 was 45 nM in assay [2] and 830 nM in assay [3].
Take `C[n+]1cc(NC(=O)c2ccc3ccc4ccc(C(=O)Nc5cc6ccccc6[n+](C)c5)nc4c3n2)cc2ccccc21`: the result in assay [1] was Active.
On the same count and under the same terms, the same measure for `C[n+]1cc(NC(=O)c2cccc(C(=O)Nc3cc4ccccc4[n+](C)c3)n2)cc2ccccc21`: “Active”.
Consider `C[n+]1ccc(-c2c3nc(c(-c4cc[n+](C)cc4)c4ccc([nH]4)c(-c4cc[n+](C)cc4)c4ccc([nH]4)c(-c4cc[n+](C)cc4)c4nc2C=C4)C=C3)cc1`, for which, in assay [1], the outcome was inactive.
As to `Cc1oc2nc1-c1nc(co1)-c1nc(co1)-c1nc(co1)-c1nc(co1)-c1nc(co1)C1=NC(CS1)c1nc-2c(C)o1` (stereo not drawn) [TELOMESTATIN], the half-inhibitory concentration (IC50) was found to be 1150 nM in assay [4], 0.64 nM in assay [2], 900 nM in assay [3] and 58 nM in assay [5]. Further, the outcome in assay [1] was inactive.
Consider `C[n+]1ccc(-c2c3nc(c(-c4cc[n+](C)cc4)c4ccc([nH]4)c(-c4cc[n+](C)cc4)c4nc(c(-c5cc[n+](C)cc5)c5ccc2[nH]5)C=C4)C=C3)cc1` [TMPYP4], for which the values for the IC50 in assay [2] and in assay [3] were 550 nM and 710 nM, respectively.
